Measurements as given in patent publication US20110034472A1, “Novel Compounds for Treatment of Cancer and Disorders Associated With Angiogenesis Function” (UNIVERSITY OF SOUTHERN CALIFORNIA, priority 2004, published 2011).
“Also recorded” adds a separate entry of the source.

How the values were obtained:
PC3 xenografts = test: PC3 human prostate cancer xenograft in athymic nude mice; type: in vivo
Experimental: FIG. 20. (A) is a schematic outline of tumor growth and dosing in PC3 mice xenografts. […] Athymic nude mice implanted with PC3 cells were treated with the indicated concentration of SC21 through daily i.p. administration for 5 d. Tumor growth was monitored for 5 wks. Values represent the tumor weight (mean±SD) for each group. (C) depicts dose-response to SC21 in the PC3 xenograft. Values represent the % T/C from each treatment group on the last day of measurement (after 5 wks); bars,±SD.
Fifty male athymic nude (nu/nu) mice (Charles River Laboratories, Wilmington, Mass.) were used for in vivo testing. The animals were fed ad libitum and kept in air conditioned rooms at 20±2° C. with a 12-hour light-dark period. Animal care and manipulation were in agreement with the University of Southern California Institutional Guidelines, which are in accordance with the Guidelines for the Care and Use of Laboratory Animals.
PC3 cells from in vitro cell culture were inoculated s.c. in both flanks of athymic nude mice (2×10^6 cells/flank) under aseptic conditions. Tumor growth was assessed by biweekly measurement of tumor diameters with a Vernier caliper (length×width). Tumor weight was calculated according to the formula: TW (mg)=tumor volume (mm^3)=d^2×D/2, where d and D are the shortest and longest diameters, respectively. Cells were allowed to grow to an average volume of 100 mm^3. Animals were then randomly assigned for control and treatment groups, to receive control vehicle or SC21 (0.3 and 3 mg/kg, dissolved in isotonic saline solution) via i.p. injections once a day for 5 days. Treatment of each animal was based on individual body weight. After 5 days of treatment, the tumor volumes in each group were measured […]. Treated animals were checked daily for treatment toxicity/mortality. The percentage of tumor growth inhibition was calculated as % T/C=100× (mean TW of treated group/mean TW of control group).
The in vivo efficacy of SC21 was evaluated in nude mice inoculated with human prostate PC3 cells. Animals were treated with daily i.p. injections of saline (controls) and SC21 at 0.3 or 3 mg/kg. After 5 days of dosing, the drug treatment was discontinued and the animals were monitored biweekly for 5 weeks.

T24 cells = test: Two-dimensional gel electrophoresis proteomic analysis, SC23; type: cell-based, human; conditions: 2D gel spots, SC23 treatment
Experimental: Cells were treated for 12, 24, 48 and 72 hr with SC23 (IC80 dose). The soluble fraction was then extracted and quantified. […] of protein was loaded in the first dimension gel at 800 V for 16 h. Gels were then equilibrated, separated on a 12% SDS-PAGE gel for the second dimension, stained with CyproRuby, and imaged by Typhoon 9100.
SC23-Treated Cells Upregulate a Variety of Proteins in the Molecular Weight Range of 8-58 kDa. […] 2DE was then used to separate these proteins (FIG. 29). As above, treatment with SC23 led to a significant up-regulation of many proteins. Similar analysis was carried out for DU145 cells treated with SC23.
Proteins identified from the spots shown in FIG. 30 are 3-tubulin, myc promoter-binding protein (MPB-1), retinoblastoma-binding protein 7, vimentin, enolase, phosphopyruvate hydratase beta, mitochondrial ATP synthase beta chain.
Among the several spots that were at least 4-fold overexpressed was β-tubulin, which is related to the top three genes identified from our microarray analysis as described above.

[1] = test system: panel of seven human cancer cell lines; test: MTT-assay, panel of seven human cancer cell lines; type: cell-based; conditions: read-out: CC50 dose range
Experimental: The sensitivity of a panel of seven human cancer cell lines to SC144 was assessed by MTT-assay. […] The sensitivity towards SC144 was time- and dose-dependent.

[2] = test system: HOP-92 non-small cell lung cancer cells; test: Sensitivity of various cancer cells to SC144, HOP-92; type: cell-based; conditions: Homo sapiens
Excerpt: (§1) The studies were expanded to other cell lines. […] Subnanomolar to low nanomolar potency was also observed in HCT-116 and HT29 colon cancer cell lines (Table 2).

UO-31 renal cancer cells = test: Sensitivity of various cancer cells to SC144, UO-31; type: cell-based; conditions: Homo sapiens
Excerpt: as §1

MDA-MB-435 xenografts = test: Nude mice xenograft model of human breast MDA-MB-435 cells; type: in vivo
Experimental: FIG. 3. (A) is a schematic outline of tumor growth and dosing in xenograft models. […] Tumor growth was monitored for five weeks. Values represent the median tumor weight for each group.
After five-days of dosing, the drug treatment was discontinued and the animals were monitored bi-weekly for five weeks.
For statistical analysis, the % T/C value was calculated on the last day of dosing and is graphed for all of the treatment groups (FIG. 3C).
To evaluate the extent of tumor necrosis after drug treatment tumor samples were collected from control and treated mice on day 70.

[3] = test system: HCT 116 p53^+/+ colon cancer cells; test: MTT cytotoxicity assay, HCT 116 p53+/+; type: cell-based, human; conditions: Homo sapiens, 72 h
Excerpt: (§2) Human breast cancer cells MDA-MB-435 and colon cancer HT29, p53 mutant were purchased from the American Type Cell Culture (Manassas, Va.). The HCT116 P53^+/+ and HCT116 P53^−/− cells were kindly provided by Dr. Bert Vogelstein (Johns Hopkins Medical Institutions, Baltimore, Md.). Human prostate cancer cells, LNCaP, were kindly provided by Richard Cote (University of Southern California Keck School of Medicine). Cells were maintained as monolayer cultures in RPMI 1640 media supplemented with 10% fetal bovine serum (Gemini-Bioproducts, Woodland, Calif.) and 2 mmol/L L-glutamine at 37° C. in a humidified atmosphere of 5% CO2. To remove the adherent cells from the flask for passaging and counting, cells were washed with PBS without calcium or magnesium, incubated with a small volume of 0.25% trypsin-EDTA solution (Sigma-Aldrich, St. Louis, Mo.) for 5-10 min, and washed with culture medium and centrifuged. All experiments were performed using cells at exponential growth stage. Cells were routinely checked for mycoplasma contamination using a PCR-based assay (Stratagene, Cambridge, UK).
(§3) Cytotoxicity was assessed by a 3-(4,5-dimethylthiazol-2-yl)-2,5-diphenyltetrazolium bromide (MTT) assay as previously described.^9 Briefly, cells were seeded in 96-well microtiter plates and allowed to attach. Cells were subsequently treated with continuous exposure to the corresponding drug for 72 h. An MTT solution (at a final concentration of 0.5 mg/mL) was added to each well, and cells were incubated for 4 h at 37° C. After removal of the medium, DMSO was added and the absorbance was read at 570 nm. All assays were done in triplicate. The IC50 was then determined for each drug from a plot of log (drug concentration) versus percentage of cells killed.

[4] = test system: HCT 116 p53^−/− colon cancer cells; test: MTT cytotoxicity assay, HCT 116 p53-/-; type: cell-based, human; conditions: Homo sapiens, 72 h
Excerpt: as §2, §3

[5] = 0.3 or 3 mg/kg daily i.p. for 5 days

For `O=C(NNC(=O)c1ccccc1O)C1=CC2C=CC=CC2C=C1O` (stereo not drawn) [SC21], the “average weight of mice” value (PC3 xenografts; 0.3 mg/kg of SC21) was 32.1 ± 1.92 g, the “average weight of mice” value (PC3 xenografts; 3.0 mg/kg of SC21) was 33.3 ± 1.89 g and the “tolerability, drug-related deaths, body weight” value (PC3 xenografts; [5]) was “well-tolerated and did not result in any drug-related deaths and changes in body weight”. For the same compound, the “tumor burden / tumor growth” value (PC3 xenografts; [5]) was “significantly reduced tumor burden; also recorded: Significant reduction in tumor growth”.
`O=C(NNC(O)c1cc2ccccc2cc1O)c1cc2ccccc2cc1O` (stereo not drawn) [SC23] was tested, and the β-tubulin protein overexpression (T24 cells) was “at least 4 fold”.
For `O=C(NNc1nc2cc(F)ccc2n2cccc12)c1cnccn1` [SC144, Pyrazine-2-carboxylic acid N′-(7-fluoro-pyrrolo[1,2-a]quinoxalin-4-yl)-hydrazide], the CC50 [1] was 700 to 10000 nM, the CC50 [2] was 200 nM and the CC50 (UO-31 renal cancer cells) was 300 nM. The “organ toxicity (H&E staining of kidney, liver, heart tissues)” value (MDA-MB-435 xenografts; 4 mg/kg) was “no damage in these organs; also recorded: does not exhibit organ toxicity”, the reduced tumor growth (MDA-MB-435 xenografts; 4 mg/kg daily i.p. for five days) was 60% and the “necrosis of tumor tissues” value (MDA-MB-435 xenografts; 4 mg/kg, day 70, H&E staining) was “greater than 80%”. The “tolerability, drug-related deaths” value (MDA-MB-435 xenografts; 0.3, 0.8, 4 mg/kg daily i.p. five days) was “well tolerated and did not result in drug-related deaths”, the “body weight compared to vehicle control” value (MDA-MB-435 xenografts; mouse, in vivo) was “no changes in body weight” and the IC50 [3] was 600 ± 70 nM. It also gave an IC50 [4] of 900 ± 40 nM.
